Series [1] relates to MDA-MB-231 cells. Nature of the series: Cell proliferation (cell count), 6-day endpoint, Alamar blue. It counts as cell-based, human. The conditions noted are these: for concentration showing a complete blockage of cell proliferation with lack of cell toxicity: MDA-MB-231, chosen for microarray. As to the method:
MDA-MB-231 cells (ATCC® HTB-26™) were used. These cells are human triple negative breast cancer cells, which we obtained from American Type Culture Collection (ATCC) (Manassas, VA, USA). MDA-MB-231 cells were initially brought up in ATCC-formulated Leibowitz's L-15 medium, supplemented with 10% fetal bovine serum (FBS) and penicillin/streptomycin (100 U/0.1 mg/ml). After confluence, the cells were sub-cultured and grown in Dulbecco's modified Eagle's medium (DMEM) containing phenol red, 7.5% FBS, 4 mM L-glutamine, 20 μM sodium pyruvate, and penicillin/streptomycin (100 U/0.1 mg/ml). Cells were maintained at 37° C. in 5% C02/atmosphere, and every 2-5 days, the medium was replaced and cells sub-cultured. The growth medium was used for all experiments conducted herein.
For MDA-MB-231 cells, both paclitaxel and GM-4-53 were dissolved in DMSO and […]. A stock solution for both compounds was prepped in HBSS. In brief, 96-well plates were seeded with cells (0.04×10^5/well) to a volume of 200 μL, to which drugs were added, and cell proliferation (as cell count) was evaluated at a 6-day endpoint, using Alamar blue. […] Samples were returned to the incubator for 4-6 h, and the reduction in the dye (to resorufin, a fluorescent compound) caused by viable cells was quantitatively analyzed using a Synergy HTX multi-mode reader (Bio-Tek, Winooski, VT, USA), with excitation/emission wavelength settings at 550 nm/580 nm. Cell count was evaluated as % control, and the inhibitory growth (IG50) value was calculated by regression analysis. […] The cytostatic effects of MCF-7 and Ishikawa cell lines were determined using the CellTiter-Glo (CTG) luminescent cell viability assay, which is based on the direct determination of intracellular ATP level (determining the number of viable cells in culture based on the quantification of ATP present), which signals the presence of metabolically active cells. Luminescence results were read on TriLux Luminometer. […]
(Resazurin is reduced to fluorescent resorufin, in cell work by metabolically active cells.)

Series [2] deals with MDA-MB-231 cells. Nature of the series: Cytotoxicity assay at high plating density, 24-36 h. It counts as cell-based, human. The conditions noted are these: 36-hour toxicity assay, equal drug concentrations, 0.5×10^5 cells/well. As for the experimental part:
For MDA-MB-231 cells, both paclitaxel and GM-4-53 were dissolved in DMSO and […]. A stock solution for both compounds was prepped in HBSS. In brief, 96-well plates were seeded with cells (0.04×10^5/well) to a volume of 200 μL, to which drugs were added, and cell proliferation (as cell count) was evaluated at a 6-day endpoint, using Alamar blue. For Alamar blue testing, a working solution of resazurin prepared in sterile phosphate-buffered saline (PBS)-phenol red (0.5 mg/mL) was added (15% v/v) to each sample in a 96-well plate. Samples were returned to the incubator for 4-6 h, and the reduction in the dye (to resorufin, a fluorescent compound) caused by viable cells was quantitatively analyzed using a Synergy HTX multi-mode reader (Bio-Tek, Winooski, VT, USA), with excitation/emission wavelength settings at 550 nm/580 nm. Cell count was evaluated as % control, and the inhibitory growth (IG50) value was calculated by regression analysis. […] The cytostatic effects of MCF-7 and Ishikawa cell lines were determined using the CellTiter-Glo (CTG) luminescent cell viability assay, which is based on the direct determination of intracellular ATP level (determining the number of viable cells in culture based on the quantification of ATP present), which signals the presence of metabolically active cells. Luminescence results were read on TriLux Luminometer. […]

Series [3] deals with Ishikawa endometrial cancer cell line. Nature of the series: Cytostatic effect, CellTiter-Glo luminescent cell viability assay. The series is classed as cell-based, human. The conditions noted are these: Southern Research Institute, FIG. 4. As to the method: (§1) The anti-proliferative activity of GM-4-53 on two additional cell lines was evaluated at the Southern Research Institute (SRI, Birmingham, Alabama, USA). There, the human MCF-7 breast cancer cell line was purchased from the NCI. The human Ishikawa endometrial cancer cell line was purchased from Sigma Aldrich. Both cell lines were cultured in phenol red-free RPMI-1640 (Hyclone) (500 mL), supplemented with L-glutamine-dipeptide (Hyclone) (5 mL), and 10% fetal bovine serum (Atlanta Biologicals) (50 mL).
(§2) For MDA-MB-231 cells, both paclitaxel and GM-4-53 were dissolved in DMSO and […]. A stock solution for both compounds was prepped in HBSS. In brief, 96-well plates were seeded with cells (0.04×10^5/well) to a volume of 200 μL, to which drugs were added, and cell proliferation (as cell count) was evaluated at a 6-day endpoint, using Alamar blue. […] Samples were returned to the incubator for 4-6 h, and the reduction in the dye (to resorufin, a fluorescent compound) caused by viable cells was quantitatively analyzed using a Synergy HTX multi-mode reader (Bio-Tek, Winooski, VT, USA), with excitation/emission wavelength settings at 550 nm/580 nm. Cell count was evaluated as % control, and the inhibitory growth (IG50) value was calculated by regression analysis. […] Luminescence results were read on TriLux Luminometer. […]
A general note: Cellular ATP, detected with luciferase, serves as a proxy for viable cell number.

Series [4] relates to MCF-7 breast cancer cell line. Described as above. It counts as cell-based, human. The conditions noted are these: MCF-7, Southern Research Institute, FIG. 4. As for the experimental part:
as §1, §2

The subject of series [5] is MDA-MB-231 cells. Nature of the series: Whole-transcriptome microarray (WT 2.1 Human), differentially expressed genes. The conditions noted are these: 36 h; for ID1, ID3 and ID4 transcripts: GM-4-53 more significant effects than paclitaxel; for DEGs shared by both drugs (overlap) / down-regulated DEGs vs. controls / upregulated DEGs vs. controls / differentially expressed genes (DEGs) of 48,226 genes analyzed: paclitaxel 1 μg/mL, GM-4-53 5 μg/mL; for differentially expressed genes (DEGs) of 48,226 genes analyzed: FC >2 or <−2, p and FDR p <0.05. It counts as cell-based. As to the method:
For MDA-MB-231 cells, both paclitaxel and GM-4-53 were dissolved in DMSO and […]. A stock solution for both compounds was prepped in HBSS. In brief, 96-well plates were seeded with cells (0.04×10^5/well) to a volume of 200 μL, to which drugs were added, and cell proliferation (as cell count) was evaluated at a 6-day endpoint, using Alamar blue. For Alamar blue testing, a working solution of resazurin prepared in sterile phosphate-buffered saline (PBS)-phenol red (0.5 mg/mL) was added (15% v/v) to each sample in a 96-well plate. Samples were returned to the incubator for 4-6 h, and the reduction in the dye (to resorufin, a fluorescent compound) caused by viable cells was quantitatively analyzed using a Synergy HTX multi-mode reader (Bio-Tek, Winooski, VT, USA), with excitation/emission wavelength settings at 550 nm/580 nm. Cell count was evaluated as % control, and the inhibitory growth (IG50) value was calculated by regression analysis. Cytotoxicity studies were carried out at equal dose concentrations as proliferation studies at a higher plating density (0.5×10^5/well), over 24-36 h. The cytostatic effects of MCF-7 and Ishikawa cell lines were determined using the CellTiter-Glo (CTG) luminescent cell viability assay, which is based on the direct determination of intracellular ATP level (determining the number of viable cells in culture based on the quantification of ATP present), which signals the presence of metabolically active cells. Luminescence results were read on TriLux Luminometer. Optimal concentrations for microarray were established by a lack of cell toxicity, at a concentration showing a complete blockage of cell proliferation; paclitaxel (1 μg/mL) and GM-4-53 (5 μg/mL). For microarray studies, cells were plated and treated in […] flasks for 36 h.
After the experimental 36-hour time point, the cells were scraped, washed three times in ice-cold HBSS, spun down, the supernatant removed, and the remaining pellet was rapidly frozen and stored at −80° C. Total RNA was isolated and purified using the Trizol/chloroform method. The RNA quality was assessed, and concentrations were equalized to 82 ng/μI in nuclease-free water. According to the GeneChip™ WT PLUS Reagent Manual for Whole Transcript (WT) expression arrays, whole transcriptome analysis was conducted. Briefly, RNA was reverse transcribed to first strand/second strand […]. The cRNA was purified and assessed for yield before the second cycle single-stranded cDNA synthesis, hydrolysis of RNA, and purification of the second cycle single-stranded cDNA. Subsequently, cDNA was assessed for yield, fragmented, labeled, and hybridized onto the arrays before being subjected to fluidics and imaging using the Gene Atlas (Affymetrix, ThermoFisher Scientific). The array data, quality control, and initial processing from CEL to CHP files were conducted using an expression console before data evaluation using the Affymetrix transcriptome analysis console (Wiki/Kegg pathways) and protein-protein interaction (PPI) String Database (String Consortium 2020)^1. The dataset has been deposited to NIH Gene Expression OmniBus.

The test system of series [6] is MDA-MB-231 cells. Briefly: 3D tumor spheroid study. The note with it: GM-4-53 5 μg/mL, paclitaxel 1 μg/mL; drugs added day 14, images day 24. The series is classed as cell-based, human. As to the method: MDA-MB-231 cells were plated in low-adhesion, round-bottom, sterile, 96-well plates at a cell density of (0.2×10^5/well), in 200 uL of cell culture media centrifuged at 1800×g for 3 min prior to incubation at 37° C. in 5% C02/atmosphere. For the first 3 days, cells were taken out and re-centrifuged at 1800×g×3 min. 3D spheroids were left to grow for 10 days. On day 14, experimental drugs were added, and images were captured on day 24.
(§3) 2D cell cultures were imaged to ascertain changes in morphological structure at the 6-day endpoint in MDA-MB-231 cells in the presence or absence of treatments. In brief, cells were fixed in 4% paraformaldehyde and incubated at 37° C. in 5% CO2/atmosphere for 15 min. After delicate removal of paraformaldehyde, sterile ultra-pure biological grade water containing 0.2% Triton X-100 was gently added to each well (100 uL) and returned to the incubator for 45 min. After gentle removal, a PBS solution containing propidium iodide (1 μg/mL) and Phalloidin-iFluor 488 Reagent (ab176753) was added to each well, according to the manufacturer's instructions Abcam (Cambridge, MA, USA), and images were captured on an inverted fluorescent microscope using the 10× and 25× fluo-objectives. 3D tumors were stained with fluorescein diacetate (live-cell dye) and countered imaged for morphology.

The subject of series [7] is tubulin. Briefly: Tubulin polymerization/depolymerization. The series is classed as biochemical.
Series [8] in a line: Solubility. The series is classed as physicochemical.
Series [9] relates to MDA-MB-231 cells. Nature of the series: 2D imaging of cytoskeletal morphology (phalloidin/propidium iodide). The series is classed as cell-based, human. The conditions noted are these: day 6; GM-4-53 5 μg/mL, paclitaxel 1 μg/mL. As to the method: as §3
Series [10] relates to triple negative breast cancer (TNBC). Briefly: Treatment of a TNBC patient (Example 1). It counts as in vivo, human. The conditions noted are these: therapeutically effective amount. As for the experimental part: A patient presents with a lump in their left breast. A biopsy of the mass is performed and the cells are found to lack estrogen or progesterone receptors and HER2 protein thus confirming a diagnosis of triple negative breast cancer (TNBC). The patient is administered a therapeutically effective amount of 4-Ethyl-N-(7-hydroxy-3,4-dihydroisoquinolin-2(1H)-yl) benzamide (GM-4-53) for a time period sufficient to inhibit cell proliferation. The patient is tested at regular intervals while the drug is being administered as well as after administration has stopped.

In the case of `CCc1ccc(C(=O)NN2CCc3ccc(O)cc3C2)cc1` [GM-4-53, 4-Ethyl-N-(7-hydroxy-3,4-dihydroisoquinolin-2(1H)-yl)benzamide], in [1] (Homo sapiens, 144 h, MDA-MB-231, 6-day growth study, regression analysis, read-out: anti-proliferative IG50 growth inhibitory concentration), the IC50 was found to be 0.261 µM. In addition, in series [1], the “concentration showing a complete blockage of cell proliferation with lack of cell toxicity” value is 5 µg/mL. Besides, in [2], the cytotoxic effects entry is “no cytotoxic effects”. For the same compound, the “IG50 (cytostatic growth-inhibitory effect)” value in [3] is recorded as “mid-to-high”. Moreover, the “IG50 (cytostatic growth-inhibitory effect)” value in series [4] is on record as “mid-to-high”. In series [5], the “amphiregulin (AREG) and epiregulin (EREG) mRNA” value is on record as “significantly downregulated”; the “expression of COX2” value is given as “downregulated the expression”; the “expression of ICAM-1” value is “reduced the expression”; the “ID1, ID3 and ID4 transcripts” value is reported as “pronounced downregulation”. Moreover, in [5], the “DEGs shared by both drugs (overlap)” value is 52, the “down-regulated DEGs vs. controls” value came to 168, the “upregulated DEGs vs. controls” value came to 75 and the “differentially expressed genes (DEGs) of 48,226 genes analyzed” value was determined as 243. For the same compound, the “oncogenic transcription factors (FOS, JUN-b, NFKB1a) driving oncostatin M (OSM) signaling” value in series [5] (vs untreated controls) is listed as “general loss”. In addition, in series [5] (greater extent in GM-4-53), the KLRC3 transcript result is “loss of the KLRC3 transcript”. Moreover, the “effect on 3D tumor spheroid” value in series [6] was “halts the growth and appears to penetrate the tumor core”. For the same compound, in series [7], the “effect on tubulin nucleation” value is recorded as “only mild effects” and the “effect on tubulin polymerization/depolymerization processes” value is listed as “failed to show any effect”. Moreover, the solubility result in series [8] was “excellent solubility”. The “morphological changes of actin cytoskeleton” value in series [9] was “abnormally large-shaped extended actin networks”. In addition, in [10], the patient outcome was “deemed in remission”.

For the compound `CC(=O)O[C@H]1C(=O)[C@@]2(C)[C@H]([C@H](OC(=O)c3ccccc3)[C@]3(O)C[C@H](OC(=O)[C@H](O)[C@@H](NC(=O)c4ccccc4)c4ccccc4)C(C)=C1C3(C)C)[C@]1(OC(C)=O)CO[C@@H]1C[C@@H]2O` [paclitaxel, reference compound], the “concentration showing a complete blockage of cell proliferation with lack of cell toxicity” value in series [1] came out at 1 µg/mL. The cytotoxic effects entry in series [2] is on record as “no cytotoxic effects”. In series [5], the “amphiregulin (AREG) and epiregulin (EREG) mRNA” value is “significantly downregulated”; the “expression of COX2” value is listed as “downregulated the expression”; the “expression of ICAM-1” value is on record as “reduced the expression”; the “ID1, ID3 and ID4 transcripts” value was “pronounced downregulation”. For the same compound, in series [5], the “DEGs shared by both drugs (overlap)” value stood at 52, the “down-regulated DEGs vs. controls” value is given as 45, the “upregulated DEGs vs. controls” value is listed as 108 and the “differentially expressed genes (DEGs) of 48,226 genes analyzed” value is given as 153. Also, the “effect on 3D tumor spheroid” value in series [6] is “halt the growth of the spheroid and central core”. In addition, the “morphological changes of actin cytoskeleton” value in [9] is on record as “abnormally large-shaped extended actin networks”.

These data come from patent publication US11839609B1, “Substituted tetrahydroisoquinolines as anti-mitotic drug in triple negative breast cancer” (Florida A&M University, priority 2021, dated 2023).
